According to patent publication US7737136B2 (N.V. Organon, priority 2002, dated 2010):

Target: T1, human progesterone receptor-B (Homo sapiens, UniProt P06401)
T1 construct: expressed in transfected cells; host or cells: Chinese hamster ovary (CHO) cells, line CHO-PRB-pMMTV-LUC 1E2-A2
T1 sequence (P06401 1-933): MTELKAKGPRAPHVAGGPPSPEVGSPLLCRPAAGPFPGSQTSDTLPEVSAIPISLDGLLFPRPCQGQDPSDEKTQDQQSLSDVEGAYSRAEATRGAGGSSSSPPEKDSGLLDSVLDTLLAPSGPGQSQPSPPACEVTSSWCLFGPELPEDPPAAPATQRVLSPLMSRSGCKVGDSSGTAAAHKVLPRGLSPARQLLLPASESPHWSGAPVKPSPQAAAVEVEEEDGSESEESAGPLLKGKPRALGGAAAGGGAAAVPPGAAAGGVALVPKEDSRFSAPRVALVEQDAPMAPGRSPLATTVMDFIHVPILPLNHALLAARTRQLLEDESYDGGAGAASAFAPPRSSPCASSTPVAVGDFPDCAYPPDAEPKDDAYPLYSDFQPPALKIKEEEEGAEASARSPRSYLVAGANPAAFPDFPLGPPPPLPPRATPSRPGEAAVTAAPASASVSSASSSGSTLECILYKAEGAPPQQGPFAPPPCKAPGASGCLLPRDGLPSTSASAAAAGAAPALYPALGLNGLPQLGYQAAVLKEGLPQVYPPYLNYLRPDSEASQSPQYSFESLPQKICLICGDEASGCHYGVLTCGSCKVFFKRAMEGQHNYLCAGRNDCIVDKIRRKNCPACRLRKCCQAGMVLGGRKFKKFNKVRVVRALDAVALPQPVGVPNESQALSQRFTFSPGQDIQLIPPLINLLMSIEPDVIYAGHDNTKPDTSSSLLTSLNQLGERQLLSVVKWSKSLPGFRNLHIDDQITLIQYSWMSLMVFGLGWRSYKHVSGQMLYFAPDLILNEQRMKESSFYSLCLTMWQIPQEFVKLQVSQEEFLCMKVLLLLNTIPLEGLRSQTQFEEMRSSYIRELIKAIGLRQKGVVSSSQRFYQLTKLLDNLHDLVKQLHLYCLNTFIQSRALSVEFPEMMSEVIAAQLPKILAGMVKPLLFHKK
Test: Progesterone receptor-B transactivation assay, antiprogestagenic activity (inhibition of luciferase transactivation induced by Org 2058)
Assay type: cell-based
Settings: in the presence of 1 nM (16α)-16-ethyl-21-hydroxy-19-norpregn-4-ene-3,20-dione (Org 2058); read-out: Anti-progestagenic activity EC50
Procedure: (§1) The (anti-)progestagenic activity of a compound of the invention (EC 50 and intrinsic activity) was determined in an in vitro bioassay of Chinese hamster ovary (CHO) cells stably transfected with the human progesterone receptor-B expression plasmid and with a reporter plasmid in which the MMTV-promoter is linked to the luciferase reporter gene. […] The cells were cultured with charcoal-treated supplemented defined bovine calf serum from Hyclone (Utah, USA) in Dulbecco's Modified Eagles Medium/Nutrient Mixture F-12 (DMEM/HAM F12 in ratio 1:1) from Gibco (Paisley, UK).

EC50	Compound
100 to 10000 nM	O=C(N[C@H]1CCCN2c3cc(F)ccc3Oc3ccccc3[C@H]12)C(F)(F)F (relative stereo) [Example 5, trans-2,2,2-Trifluoro-N-(7-fluoro-2,3,4,14b-tetrahydro-1H-dibenzo[b,f]pyrido[1,2-d][1,4]oxazepin-1-yl)acetamide]
10 to 100 nM	O=C(N[C@H]1CCCN2c3cc(Cl)ccc3Cc3ccccc3[C@H]12)C(F)(F)F (relative stereo) [Example 8, trans-N-(7-Chloro-1,2,3,4,10,14b-hexahydrodibenzo[c,f]pyrido[1,2-a]azepin-1-yl)-2,2,2-trifluoroacetamide]
100 to 10000 nM	CC(=O)N[C@H]1CCCN2c3cc(Cl)ccc3Oc3ccccc3[C@H]12 (relative stereo) [Example 10, trans-N-(7-Chloro-2,3,4,14b-tetrahydro-1H-dibenzo[b,f]pyrido[1,2-d][1,4]oxazepin1-yl)acetamide]
100 to 10000 nM	CC(C)CNC(=S)N[C@H]1CCCN2c3cc(Cl)ccc3Oc3ccccc3[C@H]12 (relative stereo) [Example 32, trans-N-(7-Chloro-2,3,4,14b-tetrahydro-1H-dibenzo[b,f]pyrido[1,2-d][1,4]oxazepin-1-yl)-N′-(2-methylpropyl)thiourea]
100 to 10000 nM	S=C(NC1CCCCC1)N[C@H]1CCCN2c3cc(Cl)ccc3Oc3ccccc3[C@H]12 (relative stereo) [Example 33]
10 to 100 nM	FCC(=S)NC1CCCN2c3cc(Cl)ccc3Oc3ccccc3C12 [22 (1S,14bR isomer)]
100 to 10000 nM	CC(C)(C)NC(=S)NC1CCCN2c3cc(Cl)ccc3Oc3ccccc3C12 (centres unmarked) [Example 35]

Target: T1, human progesterone receptor-B
Test: Progesterone receptor-B transactivation assay, progestagenic (agonist) activity, CHO-PRB-pMMTV-LUC 1E2-A2 cells
Assay type: cell-based
Settings: CHO cells stably transfected with human progesterone receptor-B and MMTV-luciferase reporter; read-out: Progestagenic activity EC50
Procedure: as §1

Compound	EC50
O=C(N[C@H]1CCCN2c3cc(Cl)ccc3Cc3ccccc3[C@H]12)C(F)(F)F (relative stereo) [Example 8, trans-N-(7-Chloro-1,2,3,4,10,14b-hexahydrodibenzo[c,f]pyrido[1,2-a]azepin-1-yl)-2,2,2-trifluoroacetamide]	< 10 nM
C=Cc1cc(F)cc2c1N1CCC[C@H](NC(=O)C(F)(F)F)[C@H]1c1ccccc1O2 (relative stereo) [Example 59, trans-N-(6-Ethenyl-8-fluoro-2,3,4,14b-tetrahydro-1H-dibenzo[b,f]pyrido[1,2-d][1,4]-oxazepin-1-yl)-2,2,2-trifluoroacetamide]	< 10 nM
Cc1cc(F)cc2c1N1CCC[C@H](NC(=O)C(F)(F)F)[C@H]1c1ccccc1O2 (relative stereo) [Example 60, trans-2,2,2-Trifluoro-N-(8-fluoro-2,3,4,14b-tetrahydro-6-methyl-1H-dibenzo[b,f]pyrido-[1,2-d][1,4]oxazepin-1-yl)acetamide]	< 10 nM
O=C(N[C@H]1CCCN2c3cc(Cl)ccc3Oc3cc(Br)ccc3[C@H]12)C(F)(F)F (relative stereo) [Example 68, trans-N-(12-Bromo-7-chloro-2,3,4,14b-tetrahydro-1H-dibenzo[b,f]pyrido[1,2-d][1,4]oxazepin-1-yl)-2,2,2-trifluoroacetamide]	10 to 100 nM
N#Cc1ccc2c(c1)Oc1ccc(Cl)cc1N1CCC[C@H](NC(=O)C(F)(F)F)[C@@H]21 (relative stereo) [Example 69, trans-7-Chloro-2,3,4,14b-tetrahydro-1-[(trifluoroacetyl)amino]-1H-dibenzo[b,f]pyrido[1,2-d][1,4]oxazepine-12-carbonitrile]	10 to 100 nM
O=C(N[C@H]1CCCN2c3c(ccc(Cl)c3Cl)Oc3cc(Br)ccc3[C@H]12)C(F)(F)F (relative stereo) [Example 71, trans-N-(12-Bromo-6,7-dichloro-2,3,4,14b-tetrahydro-1H-dibenzo[b,f]pyrido[1,2-d][1,4]oxazepin-1-yl)-2,2,2-trifluoroacetamide]	< 10 nM
O=C(N[C@H]1CCCN2c3cc(Cl)ccc3Oc3c(F)cccc3[C@H]12)C(F)(F)F (relative stereo) [Example 72, trans-N-(7-Chloro-11-fluoro-2,3,4,14b-tetrahydro-1H-dibenzo[b,f]pyrido[1,2-d][1,4]oxazepin-1-yl)-2,2,2-trifluoroacetamide]	10 to 100 nM
O=C(N[C@H]1CCCN2c3cc(Cl)ccc3Oc3cccc(F)c3[C@H]12)C(F)(F)F (relative stereo) [Example 73, trans-N-(7-Chloro-14-fluoro-2,3,4,14b-tetrahydro-1H-dibenzo[b,f]pyrido[1,2-d][1,4]oxazepin-1-yl)-2,2,2-trifluoroacetamide]	< 10 nM
O=C(N[C@H]1CCCN2c3cc(Cl)ccc3Oc3cc(F)c(F)cc3[C@H]12)C(F)(F)F (relative stereo) [Example 75, trans-N-(7-Chloro-12,13-difluoro-2,3,4,14b-tetrahydro-1H-dibenzo[b,f]pyrido[1,2-d][1,4]oxazepin-1-yl)-2,2,2-trifluoroacetamide]	< 10 nM
CN1c2ccccc2[C@@H]2[C@@H](NC(=O)C(F)(F)F)CCCN2c2cc(Cl)ccc21 (relative stereo) [Example 76, trans-N-(7-Chloro-1,2,3,4,10,14b-hexahydro-10-methyl-dibenzo[b,f]pyrido[1,2-d][1,4]diazepin-1-yl)-2,2,2-trifluoroacetamide]	< 10 nM
O=C(N[C@H]1CCCN2c3cc(Cl)ccc3Nc3ccccc3[C@H]12)C(F)(F)F (relative stereo) [Example 78, trans-N-(7-chloro-1,2,3,4,10,14b-hexahydrodibenzo[b,f]pyrido[1,2-d][1,4]diazepin-1-yl)-2,2,2-trifluoroacetamide]	10 to 100 nM
FC(F)(F)C(=S)NC1CCCN2c3cc(Cl)ccc3Cc3ccccc3C12 (centres unmarked) [Example 20]	< 10 nM

The next lines start with the values.

EC50	Compound
100 to 10000 nM	O=C(N[C@H]1CCCN2c3cc(F)ccc3Oc3ccccc3[C@H]12)C(F)(F)F (relative stereo) [Example 5, trans-2,2,2-Trifluoro-N-(7-fluoro-2,3,4,14b-tetrahydro-1H-dibenzo[b,f]pyrido[1,2-d][1,4]oxazepin-1-yl)acetamide]
100 to 10000 nM	CC(=O)N[C@H]1CCCN2c3cc(Cl)ccc3Oc3ccccc3[C@H]12 (relative stereo) [Example 10, trans-N-(7-Chloro-2,3,4,14b-tetrahydro-1H-dibenzo[b,f]pyrido[1,2-d][1,4]oxazepin1-yl)acetamide]
< 10 nM	O=C(N[C@H]1CCCN2c3cc(Br)ccc3Oc3ccccc3[C@H]12)C(F)(F)F (relative stereo) [Example 61, trans-N-(7-Bromo-2,3,4,14b-tetrahydro-1H-dibenzo[b,f]pyrido[1,2-d][1,4]oxazepin-1-yl)-2,2,2-trifluoroacetamide]
10 to 100 nM	CC(=O)c1ccc2c(c1)N1CCC[C@H](NC(=O)C(F)(F)F)[C@H]1c1ccccc1O2 (relative stereo) [Example 62, trans-N-(7-Acetyl-2,3,4,14b-tetrahydro-1H-dibenzo[b,f]pyrido[1,2-d][1,4]oxazepin-1-yl)-2,2,2-trifluoroacetamide]
< 10 nM	N#Cc1ccc2c(c1)N1CCC[C@H](NC(=O)C(F)(F)F)[C@H]1c1ccccc1O2 (relative stereo) [Example 63, trans-2,3,4,14b-Tetrahydro-1-[(trifluoroacetyl)amino]-1H-dibenzo[b,f]pyrido[1,2-d][1,4]oxazepine-7-carbonitrile]
100 to 10000 nM	C=Cc1ccc2c(c1)N1CCC[C@H](NC(=O)C(F)(F)F)[C@H]1c1ccccc1O2 (relative stereo) [Example 64, trans-N-(7-Ethenyl-2,3,4,14b-tetrahydro-1H-dibenzo[b,f]pyrido[1,2-d][1,4]oxazepin-1-yl)-2,2,2-trifluoroacetamide]
100 to 10000 nM	CCC(=O)Nc1ccc2c(c1)N1CCC[C@H](NC(=O)C(F)(F)F)[C@H]1c1ccccc1O2 (relative stereo) [Example 67, trans-N-[2,3,4,14b-Tetrahydro-7-[(1-oxopropyl)amino]-1H-dibenzo[b,f]pyrido[1,2-d][1,4]oxazepin-1-yl]-2,2,2-trifluoroacetamide]
10 to 100 nM	Cc1ccc2c(c1)Oc1ccc(Cl)cc1N1CCC[C@H](NC(=O)C(F)(F)F)[C@@H]21 (relative stereo) [Example 70, trans-N-(7-Chloro-2,3,4,14b-tetrahydro12-methyl-1H-dibenzo[b,f]pyrido[1,2-d][1,4]oxazepin-1-yl)-2,2,2-trifluoroacetamide]
10 to 100 nM	O=C(N[C@H]1CCCN2c3cc(Cl)ccc3Oc3cc(F)ccc3[C@H]12)C(F)(F)F (relative stereo) [Example 74, trans-N-(7-Chloro-12-fluoro-2,3,4,14b-tetrahydro-1H-dibenzo[b,f]pyrido[1,2-d][1,4]oxazepin-1-yl)-2,2,2-trifluoroacetamide]
10 to 100 nM	O=C(N[C@H]1CCCN2c3cc(Cl)ccc3Oc3ccccc3[C@H]12)C(F)F [Example 13]
100 to 10000 nM	O=C(CCl)NC1CCCN2c3cc(Cl)ccc3Oc3ccccc3C12 (centres unmarked) [Example 14]
< 10 nM	FCC(=S)N[C@H]1CCCN2c3cc(Cl)ccc3Oc3ccccc3[C@H]12 [Example 22]
10 to 100 nM	CN(C(=S)C(F)(F)F)C1CCCN2c3cc(Cl)ccc3Oc3ccccc3C12 (centres unmarked) [Example 24]
